Converted amounts (≈) assume the structure as drawn.

For the data set the following is noted: for aqueous solubility: pH 6.8.

Take `CC(C)c1nnc(-c2ccc(-c3ccccc3)nc2)n1-c1cccc2nonc12`: the MDR1-MDCK efflux ratio is 4.09; the intrinsic clearance, human liver microsomes is 8.27 mL/min/kg; the intrinsic clearance, rat liver microsomes was determined as 518 mL/min/kg; the aqueous solubility worked out at 53.4 µg/mL (≈ 140 µM).

As for `CN(Cc1cccc(C#N)c1)c1cnc2ccccc2n1`, the MDR1-MDCK efflux ratio was found to be 0.442; the intrinsic clearance, human liver microsomes stood at 75.3 mL/min/kg; the intrinsic clearance, rat liver microsomes was determined as 477 mL/min/kg; the aqueous solubility is 11.8 µg/mL (≈ 43.2 µM).

Take `O=C(CN1CCCN(c2ccc(C(F)(F)F)cn2)CC1)Nc1ccccc1`: the MDR1-MDCK efflux ratio is 0.748; the intrinsic clearance, human liver microsomes amounted to 112 mL/min/kg; the intrinsic clearance, rat liver microsomes is 807 mL/min/kg; the aqueous solubility turned out to be 1.7 µg/mL (≈ 4.49 µM).

`Cn1cc(CN2CCN(c3ccccc3O)CC2)c(-c2ccncc2)n1`: the MDR1-MDCK efflux ratio was found to be 2.69; the intrinsic clearance, human liver microsomes was 27.3 mL/min/kg; the intrinsic clearance, rat liver microsomes is 374 mL/min/kg; the aqueous solubility was determined as 33.2 µg/mL (≈ 95 µM).

`Nc1ccc(Cl)c(NC2=NN(c3c(Cl)cc(Cl)cc3Cl)C(=O)C2)c1` displayed an intrinsic clearance, human liver microsomes of 92.5 mL/min/kg; an intrinsic clearance, rat liver microsomes of 702 mL/min/kg; an aqueous solubility of 14.1 µg/mL (≈ 34.8 µM).

As for `Cc1cc(C(=O)N(C)CCCC2CCCC2)cc(C)n1`, the MDR1-MDCK efflux ratio was found to be 0.782; the intrinsic clearance, human liver microsomes worked out at 63.9 mL/min/kg; the intrinsic clearance, rat liver microsomes came out at 5650 mL/min/kg.

`NCC(=O)Nc1ccc2[nH]c(=O)[nH]c2c1` gave an aqueous solubility of 104 µg/mL (≈ 506 µM).

As to `Cn1c(-c2ccccc2)cnc1NCc1ccccc1`, the MDR1-MDCK efflux ratio came to 0.501; the intrinsic clearance, human liver microsomes was 506 mL/min/kg; the intrinsic clearance, rat liver microsomes is 3360 mL/min/kg; the aqueous solubility is 27.7 µg/mL (≈ 105 µM).

As to `O=c1c2cccn2c2ccccc2n1CCCN1CCC(c2ccc(Cl)cc2)CC1`, the MDR1-MDCK efflux ratio was 5.19; the intrinsic clearance, human liver microsomes came out at 183 mL/min/kg; the intrinsic clearance, rat liver microsomes stood at 1330 mL/min/kg; the aqueous solubility came out at 19.8 µg/mL (≈ 47 µM).

Turning to `Cc1nc(CN(C)C(=O)C2c3ccccc3-c3ccccc32)no1`, the MDR1-MDCK efflux ratio is 1.09; the intrinsic clearance, human liver microsomes came out at 15 mL/min/kg; the intrinsic clearance, rat liver microsomes came out at 430 mL/min/kg; the aqueous solubility came out at 32.6 µg/mL (≈ 102 µM).

For `c1ccc2c(N3CCn4c(nnc4C4CC4)C3)ncnc2c1`, the MDR1-MDCK efflux ratio turned out to be 16; the intrinsic clearance, human liver microsomes is no more than 4.74 mL/min/kg; the intrinsic clearance, rat liver microsomes was no more than 10.7 mL/min/kg; the aqueous solubility was 43.4 µg/mL (≈ 148 µM).

For `CSc1ncccc1C(=O)Nc1ccc(-c2nnc(C)[nH]2)cc1`, the MDR1-MDCK efflux ratio worked out at 6.96; the intrinsic clearance, human liver microsomes is no more than 4.74 mL/min/kg; the intrinsic clearance, rat liver microsomes was 44.1 mL/min/kg.

Turning to `N#CC1(NC(=O)c2ccc3c(c2)OCO3)CCCC1`, the intrinsic clearance, human liver microsomes was no more than 4.74 mL/min/kg and the intrinsic clearance, rat liver microsomes came to 64.9 mL/min/kg.

Take `CCc1noc(-c2ccc(CCN)cc2)n1`: the MDR1-MDCK efflux ratio came to 0.479; the intrinsic clearance, human liver microsomes is 394 mL/min/kg; the intrinsic clearance, rat liver microsomes turned out to be 54.5 mL/min/kg; the aqueous solubility came out at 44.1 µg/mL (≈ 203 µM).

For the compound `C[C@@H](Cn1nc2c(cc1=O)CCCCC2)NC(=O)CCc1ccccc1`, the intrinsic clearance, human liver microsomes came out at 222 mL/min/kg and the intrinsic clearance, rat liver microsomes was found to be 3560 mL/min/kg.

`O=C1NC(c2ccccc2)=N/C1=C/c1ccc2c(c1)OCO2` registered an aqueous solubility of 0.31 µg/mL (≈ 1.06 µM).

As for `Cc1cc(C)c(C#N)c(N2CCN(CC(=O)Nc3ccccc3Cl)CC2)n1`, the MDR1-MDCK efflux ratio came out at 0.804; the intrinsic clearance, human liver microsomes is 125 mL/min/kg; the intrinsic clearance, rat liver microsomes came to 804 mL/min/kg; the aqueous solubility is 1.09 µg/mL (≈ 2.84 µM).

As to `CCOC(=O)c1ccc(OCC(=O)c2c[nH]c3ccccc23)cc1`, the MDR1-MDCK efflux ratio turned out to be 0.456 and the aqueous solubility came to 0.69 µg/mL (≈ 2.13 µM).

In the case of `OC1(c2cccnc2F)CCN(Cc2ccc(-c3ccc(F)cc3)o2)CC1`, the MDR1-MDCK efflux ratio is 0.57; the intrinsic clearance, human liver microsomes was 18.9 mL/min/kg; the intrinsic clearance, rat liver microsomes was 170 mL/min/kg.

With `COc1ccccc1NC(=O)CSc1nc(C(C)(C)C)nc2ccccc12`, the MDR1-MDCK efflux ratio amounted to 1.26 and the aqueous solubility amounted to 0.27 µg/mL (≈ 0.708 µM).

Consider `O=C(NCC1CC1)c1cncn1-c1ccc(F)cc1`, for which the MDR1-MDCK efflux ratio was 1.26; the intrinsic clearance, human liver microsomes was no more than 4.74 mL/min/kg; the intrinsic clearance, rat liver microsomes was no more than 10.7 mL/min/kg; the aqueous solubility came out at 52.2 µg/mL (≈ 201 µM).

As for `Cn1ccc(C(=O)NCCc2cc3nc(-c4ccncc4)ccn3n2)n1`, the intrinsic clearance, human liver microsomes came out at 8.83 mL/min/kg and the intrinsic clearance, rat liver microsomes was found to be 105 mL/min/kg.

Consider `Cc1ccc2c(c1)C(=O)CC1(CCN(C(=O)c3ccc4nc(C)cc(O)c4c3)CC1)O2`, for which the MDR1-MDCK efflux ratio was found to be 30.1; the intrinsic clearance, human liver microsomes worked out at 18.4 mL/min/kg; the intrinsic clearance, rat liver microsomes amounted to 119 mL/min/kg; the aqueous solubility worked out at 20.2 µg/mL (≈ 48.5 µM).

`Cc1nc(O)c(Cl)c(N(C)CC2CCN(C)CC2)n1`: the MDR1-MDCK efflux ratio came out at 7.64; the intrinsic clearance, human liver microsomes is no more than 4.74 mL/min/kg; the intrinsic clearance, rat liver microsomes is no more than 10.7 mL/min/kg.

On to `Cc1ccc(S(=O)(=O)N2CCOc3ccncc32)cc1`, for which the MDR1-MDCK efflux ratio was determined as 0.71; the intrinsic clearance, human liver microsomes was 107 mL/min/kg; the intrinsic clearance, rat liver microsomes was 2090 mL/min/kg.

For `CCc1ccc(-c2nccn2Cc2c(C)nn(CC)c2C)o1`, the MDR1-MDCK efflux ratio turned out to be 3.28; the intrinsic clearance, human liver microsomes was determined as 246 mL/min/kg; the intrinsic clearance, rat liver microsomes turned out to be 3020 mL/min/kg; the aqueous solubility is 40.5 µg/mL (≈ 136 µM).

As for `O=c1n(CCc2ccncc2)nnn1-c1ccccc1`, the MDR1-MDCK efflux ratio was found to be 0.571; the intrinsic clearance, human liver microsomes was found to be 5.8 mL/min/kg; the intrinsic clearance, rat liver microsomes came out at 65.2 mL/min/kg; the aqueous solubility stood at 23.1 µg/mL (≈ 86.3 µM).

As to `CN1CCCn2c1cc(OCc1cc(F)c(Oc3ccc(C(F)(F)F)nc3)c(F)c1)nc2=O`, the MDR1-MDCK efflux ratio was determined as 12; the intrinsic clearance, human liver microsomes came out at 19.6 mL/min/kg; the intrinsic clearance, rat liver microsomes stood at 126 mL/min/kg.

The compound `CCc1nsc(N2CCS(=O)(=O)CC2)n1` had an intrinsic clearance, human liver microsomes of no more than 4.74 mL/min/kg and an intrinsic clearance, rat liver microsomes of no more than 10.7 mL/min/kg.

On to `Cc1cc(-c2nncc3c(C(C)(C)C)c(OCc4ncnn4C)nn23)no1`, for which the MDR1-MDCK efflux ratio was determined as 8.04; the intrinsic clearance, human liver microsomes is no more than 4.74 mL/min/kg; the intrinsic clearance, rat liver microsomes is 83.6 mL/min/kg.

As to `COC(=O)[C@]12CCC(C)(C)CC1C1C(=O)C=C3[C@@]4(C)C=C(C#N)C(=O)C(C)(C)[C@@H]4CC[C@@]3(C)[C@]1(C)CC2` (stereo partly specified), the intrinsic clearance, human liver microsomes was 93.5 mL/min/kg; the intrinsic clearance, rat liver microsomes was 323 mL/min/kg; the aqueous solubility stood at 3.15 µg/mL (≈ 6.23 µM).

In turn, `Cc1ccccc1NC(=O)CN1C(=O)CCC1=O` registered an intrinsic clearance, human liver microsomes of no more than 4.74 mL/min/kg; an intrinsic clearance, rat liver microsomes of no more than 10.7 mL/min/kg; an aqueous solubility of 36.3 µg/mL (≈ 147 µM).

`NC1(c2nc(-c3ccsc3)no2)CCCCC1` showed an intrinsic clearance, human liver microsomes of no more than 4.74 mL/min/kg and an intrinsic clearance, rat liver microsomes of 447 mL/min/kg.

In turn, `O=C(CN1CCCC(c2cccc(Cc3cccc(F)c3)n2)C1)N1CCCC1` (stereo unspecified) registered a fraction unbound, human plasma of 0.115; a fraction unbound, rat plasma of 0.0899; an intrinsic clearance, human liver microsomes of 76.2 mL/min/kg; an intrinsic clearance, rat liver microsomes of 1140 mL/min/kg.

The compound `CCN1C(=O)C(=O)N(Cc2sc3ccccc3c2Cl)C1=O` displayed an aqueous solubility of 0.3 µg/mL (≈ 0.929 µM).

`N#Cc1ccc(C(=O)Nn2cnnc2)cc1` yielded an intrinsic clearance, human liver microsomes of no more than 4.74 mL/min/kg; an intrinsic clearance, rat liver microsomes of no more than 10.7 mL/min/kg; an aqueous solubility of 18 µg/mL (≈ 84.3 µM).

With `COc1ccccc1C(=O)CSc1nncn1C1CC1`, the MDR1-MDCK efflux ratio worked out at 1.3; the intrinsic clearance, human liver microsomes worked out at 24.6 mL/min/kg; the intrinsic clearance, rat liver microsomes came out at 463 mL/min/kg.

In turn, `CSC1(CNc2cncc(Cl)n2)CCOCC1` gave an intrinsic clearance, human liver microsomes of 10.2 mL/min/kg and an intrinsic clearance, rat liver microsomes of 528 mL/min/kg.

Take `CN(CC1CCC1)C(=O)C1CCN(c2ccc3nncn3n2)CC1`: the MDR1-MDCK efflux ratio was determined as 11.6; the intrinsic clearance, human liver microsomes was determined as 7.72 mL/min/kg; the intrinsic clearance, rat liver microsomes is 126 mL/min/kg.

Consider `Oc1ccc2nc(/C=C/c3csnn3)ccc2c1Cl`, for which the MDR1-MDCK efflux ratio was 0.069; the intrinsic clearance, human liver microsomes worked out at 99.4 mL/min/kg; the intrinsic clearance, rat liver microsomes is 240 mL/min/kg.

Take `CC(=O)NC1(C(=O)N2CCCN(c3cccnn3)CC2)CCCCC1`: the MDR1-MDCK efflux ratio was determined as 21.8; the intrinsic clearance, human liver microsomes was found to be 7.73 mL/min/kg; the intrinsic clearance, rat liver microsomes amounted to 20.9 mL/min/kg; the aqueous solubility amounted to 48.3 µg/mL (≈ 140 µM).

For the compound `Cc1ccc2nc(C)c(C(=O)N3CCC(C(=O)Nc4ccncc4)CC3)cc2c1`, the MDR1-MDCK efflux ratio was 36.9; the intrinsic clearance, human liver microsomes stood at 21.1 mL/min/kg; the intrinsic clearance, rat liver microsomes is 70 mL/min/kg; the aqueous solubility worked out at 52.5 µg/mL (≈ 135 µM).

Turning to `CC(C)(C)NC(=O)Cn1nc(C(c2ccccc2)c2ccccc2)oc1=O`, the MDR1-MDCK efflux ratio amounted to 4.07; the intrinsic clearance, human liver microsomes was found to be 22.4 mL/min/kg; the intrinsic clearance, rat liver microsomes worked out at 747 mL/min/kg; the aqueous solubility is 6.02 µg/mL (≈ 16.5 µM).

On to `NCCOc1cccc(CC(=O)N2CCC(F)(F)CC2)c1`, for which the MDR1-MDCK efflux ratio turned out to be 19.4; the intrinsic clearance, human liver microsomes is no more than 4.74 mL/min/kg; the intrinsic clearance, rat liver microsomes was no more than 10.7 mL/min/kg.

For `O=C1Oc2nc3cc4c(cc3cc2CN1CCN1CCOCC1)OCO4`, the MDR1-MDCK efflux ratio turned out to be 2.42; the intrinsic clearance, human liver microsomes turned out to be 5.18 mL/min/kg; the intrinsic clearance, rat liver microsomes stood at 28.8 mL/min/kg; the aqueous solubility came to 9.6 µg/mL (≈ 26.9 µM).

Consider `CC(C)NC(=O)Cn1nnnc1C(C)(C)C`, for which the MDR1-MDCK efflux ratio was 1.25; the intrinsic clearance, human liver microsomes is no more than 4.74 mL/min/kg; the intrinsic clearance, rat liver microsomes stood at 27.1 mL/min/kg; the aqueous solubility amounted to 23.3 µg/mL (≈ 103 µM).

For the compound `COc1cc2ncn(-c3cc(OCc4ccccc4S(C)(=O)=O)c(C#N)s3)c2cc1OC`, the MDR1-MDCK efflux ratio is 8.01 and the aqueous solubility turned out to be 0.3 µg/mL (≈ 0.639 µM).

For the compound `Cc1ccc(NC(=O)CN2[C@H](Cc3ccccc3)C[C@]3(C)NC(=O)CCC[C@H]23)cc1F`, the MDR1-MDCK efflux ratio came out at 12.4; the fraction unbound, human plasma was 0.00729; the fraction unbound, rat plasma was determined as 0.023; the intrinsic clearance, human liver microsomes was found to be 499 mL/min/kg. Further, the intrinsic clearance, rat liver microsomes stood at 3320 mL/min/kg.
